Legend:
[1] = cited from earlier work
[2] = cited from earlier work; remark: listed apart in the source
[3] = Drug release measurements from coated silicon wafers, UV-Vis; format: physicochemical
Experimental: Drug release measurements: The coated silicon wafers were added into the wells of 96 well-plate and immersed in PBS buffer (200 μL) was added to each well. At day 1 and day 7, the solution was collected and the drug concentration was measured using UV-Vis spectroscopy and standard curves prepared using pure bioactive agents. The released solution was diluted to 1 mL using PBS before the measurements.

[4] = day 1, coated silicon wafer in PBS
[5] = day 7, coated silicon wafer in PBS

Row | Compound | Net charge at pH 7.4 [1] | Water solubility [2] | concentration of eluted drug [3, 4] | concentration of eluted drug [3, 5]
1 | Penicillin | Neutral | >30 mg/mL |  | 
2 | CC(=O)O[C@@]12CO[C@@H]1C[C@H](O)[C@@]1(C)C(=O)[C@H](O)C3=C(C)[C@@H](OC(=O)[C@H](O)[C@@H](NC(=O)OC(C)(C)C)c4ccccc4)C[C@@](O)([C@@H](OC(=O)c4ccccc4)[C@H]21)C3(C)C [Docetaxel] | Neutral | <0.01 mg/mL | 12.5 ppm (microgram/mL) | 13.7 ppm (microgram/mL)
3 | CO[C@H]1/C=C/O[C@@]2(C)Oc3c(C)c(O)c4c(O)c(c(/C=N/N5CCN(C)CC5)c(O)c4c3C2=O)NC(=O)/C(C)=C\C=C\[C@H](C)[C@H](O)[C@@H](C)[C@@H](O)[C@@H](C)[C@H](OC(C)=O)[C@@H]1C [Rifampicin] |  | 0.0413 mg/mL |  | 
4 | NC[C@H]1O[C@H](O[C@H]2[C@H](O)[C@@H](O[C@H]3O[C@H](CO)[C@@H](O)[C@H](N)[C@H]3O)[C@H](N)C[C@@H]2N)[C@H](N)C[C@@H]1O [Tobramycin] | Neutral | 53.7 mg/mL |  | 
5 | Gentamicin | Neutral |  |  | 
6 | CC(=O)O[C@H]1C(=O)[C@@]2(C)[C@H]([C@H](OC(=O)c3ccccc3)[C@]3(O)C[C@H](OC(=O)[C@H](O)[C@@H](NC(=O)c4ccccc4)c4ccccc4)C(C)=C1C3(C)C)[C@]1(OC(C)=O)CO[C@@H]1C[C@@H]2O [Paclitaxel] |  |  | 1.3 ppm (microgram/mL) | 1.4 ppm (microgram/mL)

— patent US20230132202A1, “Polymeric Binder and High Molecular Weight Polymer Antifouling Compositions” (The University of British Columbia, priority 2020, published 2023)
